Laboratory results taken from PMC10714182 (JACC: Basic to Translational Science, 2023).

What was measured:
5-HT2B [1] = molecular target: T1, 5-HT2B (Homo sapiens, UniProt P41595); assay: 5-HT2B functional readouts; assay type: cell-based; settings: calcium mobilization and G protein dissociation (BRET2)
5-HT2B [2] = molecular target: T1, 5-HT2B; settings: read-out: previously reported IC50; cited from earlier work
[3] = tested on: Sugen-hypoxia (Su/Hx) mouse model of PAH; assay: Sugen-hypoxia experimental PAH, interventional study; assay type: in vivo, C57BL/6 mice; settings: intervention, treatment for 2 weeks after 2 weeks of PAH induction
[4] = tested on: Sugen-hypoxia (Su/Hx) mouse model of PAH; assay: Sugen-hypoxia experimental PAH, prevention study; assay type: in vivo, C57BL/6 mice

T1 sequence (P41595 whole entry): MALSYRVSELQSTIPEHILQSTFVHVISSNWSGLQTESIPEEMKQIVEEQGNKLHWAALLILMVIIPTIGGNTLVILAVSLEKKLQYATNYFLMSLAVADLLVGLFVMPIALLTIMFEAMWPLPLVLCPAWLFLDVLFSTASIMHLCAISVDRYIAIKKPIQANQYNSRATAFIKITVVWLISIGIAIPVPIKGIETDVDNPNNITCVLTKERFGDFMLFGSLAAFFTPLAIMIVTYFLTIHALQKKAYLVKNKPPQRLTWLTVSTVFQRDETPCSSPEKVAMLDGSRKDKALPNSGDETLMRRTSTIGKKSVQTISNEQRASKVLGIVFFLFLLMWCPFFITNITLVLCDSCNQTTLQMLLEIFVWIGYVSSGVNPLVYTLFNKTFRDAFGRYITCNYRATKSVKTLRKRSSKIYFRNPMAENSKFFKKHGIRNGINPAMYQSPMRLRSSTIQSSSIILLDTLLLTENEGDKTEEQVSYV

## Cc1cc(NC(=O)Nc2ccc3c(ccn3C)c2)sn1 [SB204741, N-(1-methyl-5-indolyl)-N'-(3-methyl-5-isothiazolyl)urea]
5-HT2B [1]
  behaviour in 5-HT2B functional readouts: true antagonist
5-HT2B [2]
  IC50: 39.3 nM
[3]
  number of partially and fully muscularized small vessels (0-25 μm): reduced the number of partially, but not fully, muscularized small vessels
[4]; osmotic pump 3 weeks, SB204741 1 mg/kg/d, VU6047534 10 mg/kg/d
  RVSP vs vehicle control-treated Su/Hx mice: significantly reduced
[4]; treatment before induction of experimental PAH
  number of partially and fully muscularized small vessels (0-25 μm): reduced the number of both partially and fully muscularized small vessels
